Patent publication US4310348A, “Plant growth regulating compositions” (priority 1978, dated 1982)
“Also recorded” adds a separate entry of the source.

Columns and labels:
white rats = experiment: acute oral toxicity (LD50) on white rats; settings: rat, in vivo
Text: (§1) Therefore, the new compound of the formula (I) can be utilized to advantage as insecticidal agent for controlling granarial insect pests and insects attacking ornamental plants, indoor plants and vegetables.

cholinesterase = cholinesterase blocking effect; type: biochemical
[1] = tested on: dried bean beetle (Acanthoscelides obtectus); experiment: protection against dried bean beetle, procedure of Example 13(a) (Table 7); type: in vivo; settings: compared with dichlorphon
Experimental: (§2) The emulsifiable concentrate described in Example 8 was diluted with water to a final active agent content of 3% by weight, and an amount corresponding to 2.5 mg of racemic active agent/cm^2 of plane area of the resulting spray liquid was filled into a cylindrical flask. 20 flies, anaesthetized with carbon dioxide, were placed in the flask, the flask was covered with a Petri dish, and the effect of the active agent was observed. In the control test the same dosage of dichlorphon (O,O-dimethyl-2,2-dichlorovinyl phosphate) was applied as active agent.
Protection against dried bean beetle (Acanthoscelides obtectus)

[2] = acute oral toxicity (LD50) on white rats; settings: rat, in vivo; white rats, oral administration
Text: as §1

corn [3] = experiment: greenhouse test, plant growth promoting effect on corn from dressed seeds (Table 1); type: in vivo
Experimental: (§3) 6 parts by weight of a 10% acetone solution of (±)-2-(propargyloxyimino)-1,7,7-trimethyl-bicyclo[2,2,1]heptane are added under stirring to a solution containing 30 parts by weight of acetone, 2.5 parts by weight of hydroxypropyl cellulose, 5 parts by weight of polyethylene glycol (molecular weight: 6000), 20 parts by weight of water and an arbitrary amount of a dyestuff having no germination-inhibiting effect.
(§4) (a1) Three cultivation pots were filled with sand, and 30 corn seeds each were sown. 10 of the seeds were not dressed (untreated controls), 10 of the seeds were dressed with a dressing agent described in Example 10 but containing no active agent (placebo), whereas the remaining 10 seeds were dressed with a dressing agent prepared according to Example 10 containing racemic active agent. The cultivation pots were placed in a greenhouse, and the temperature, light and atmospheric humidity of the greenhouse were maintained at optimum. The percentage of germinating seeds was determined, and on the 14th and 28th days after sowing the height and green weight of the emerged plants were measured. The results of the test are summarized in Table 1, in which the percentage of germination is related to the number of seeds sown, whereas the heights and green weights of the plants are given in percentages related to the untreated controls.

Bean = experiment: greenhouse pre-emergent treatment, green weight, bean (Table 2); type: in vivo; settings: 4-week-old plants
Experimental: (§5) (a2) Seeds of bean, carrot, flax, green pepper, tomato, spinach, barley and sorghum were sown into cultivation pots (20×20 cm) filled with sand. The cultivation pots were placed in a greenhouse, and treated prior to plant emergence with 0.1 or 0.2 kg of racemic active agent/hectare. The green weights of the 4-week-old plants were measured, and the data were compared to those observed with the untreated controls.

Carrot = experiment: greenhouse pre-emergent treatment, green weight, carrot (Table 2); type: in vivo; settings: 4-week-old plants
Experimental: as §5

Flax = experiment: greenhouse pre-emergent treatment, green weight, flax (Table 2); type: in vivo; settings: 4-week-old plants
Experimental: as §5

Green pepper = experiment: greenhouse pre-emergent treatment, green weight, green pepper (Table 2); type: in vivo; settings: 4-week-old plants
Experimental: as §5

Tomato = experiment: greenhouse pre-emergent treatment, green weight, tomato (Table 2); type: in vivo; settings: 4-week-old plants
Experimental: as §5

Spinach = experiment: greenhouse pre-emergent treatment, green weight, spinach (Table 2); type: in vivo; settings: 0.1 kg/ha, 4-week-old plants
Experimental: as §5

Barley = experiment: greenhouse pre-emergent treatment, green weight, barley (Table 2); type: in vivo; settings: 4-week-old plants
Experimental: as §5

Sorghum = experiment: greenhouse pre-emergent treatment, green weight, sorghum (Table 2); type: in vivo; settings: 4-week-old plants
Experimental: as §5

corn [4] = experiment: open-air test on small parcels with dressed corn seeds (Table 3); type: in vivo
Experimental: as §3, §4
The procedure described in point (a) was repeated with the difference that the seeds were sown in a 10×10 m parcel, the plants were kept under observation for the whole growth season, and the crop yield was also determined. The parcel was hoed in order to remove weeds.

corn [5] = experiment: open-air test on small parcels, pre- or post-emergent spraying of corn (Table 4); type: in vivo; settings: for Ear yield / Green weight / Height: untreated = 100
Experimental: 10 parts by weight of (±)-2-(propargyloxyimino)-1,7,7-trimethyl-bicyclo[2,2,1]heptane are dissolved in 9 parts by weight of xylene, and 1 part by weight of a mixture of an anionic and a non-ionic surfactant (e.g. a 2:3 mixture of Atlox 3386 and Atlox 4851) is added to the solution. The mixture is homogenized. An emulsifiable concentrate containing 50% by weight of active agent (50 EC) is obtained, which can be diluted with water to form a spray liquid.
Corn seeds were sown in small (10×10 m) parcels, and the parcels were treated prior to or after plant emergence with an aqueous spray liquid prepared from the emulsifiable concentrate described in Example 8. The concentrate was diluted with rain water to a final active agent content of 0.02 to 0.1%, depending on the dosage applied, and 500 liters/hectare of the spray liquid were applied. The dosages examined in the pre-emergent treatments varied between […] of racemic active agent/hectare, whereas in the post-emergent treatment a dosage of 1 kg of racemic active agent/hectare was applied. The parcels were hoed in order to remove weeds.

[6] = tested on: houseflies (Musca domestica); experiment: insecticidal activity, protection against houseflies (Table 5); settings: in vivo
Experimental: as §2

[7] = tested on: housefly (Musca domestica) larvae; experiment: insecticidal activity, protection against housefly larvae (Table 6); type: in vivo; settings: for Development: in relation to the control
Experimental: 1 kg of wheat barn was admixed with 1 liter of milk, 10 g of fodder yeast and 6 g of Nipagin (ethyl p-hydroxybenzoate) to obtain a culture medium for the cultivation of housefly larvae. 200 g each of the above culture medium were put into small cylindrical flasks, and racemic active agent was added so that the active agent content of the culture medium was 250, 500 and 1000 ppm, respectively. The racemic active agent was introduced in the form of an emulsifiable concentrate containing 50% by weight of the compound concerned, and the culture medium was homogenized with the concentrate. No active agent was introduced into the control flask. 50 one-day-old housefly larvae each were placed in the cylindrical flasks, the flasks were covered with a cloth ensuring good ventilation, and the percentage of images developing from the pupae was determined in relation to the control.

[8] = tested on: dried bean beetle (Acanthoscelides obtectus); experiment: protection against dried bean beetle on treated bean seeds (Table 8); type: in vivo
Experimental: (b) 100 g of bean seeds each were treated with a spray liquid containing 1.0% by weight of racemic active agent (prepared by diluting an emulsifiable concentrate containing 50% by weight of active agent) in an amount corresponding to 250, 500 and 1000 ppm of active agent, respectively. The control seeds were not treated. The seeds were put into small cylindrical flasks. 20 insects each were placed in the flasks, and the flasks were covered with a cloth. After 14 days the survivors were counted.

[9] = 14th day after sowing, related to untreated controls
[10] = 28th day after sowing, related to untreated controls
[11] = dressed seeds, open air, untreated control = 100
[12] = post-emergent, 1.0 kg of active agent/hectare
[13] = pre-emergent, 0.1 kg of active agent/hectare
[14] = pre-emergent, 1.0 kg of active agent/hectare
[15] = pre-emergent, 3.0 kg of active agent/hectare
[16] = pre-emergent, 5.0 kg of active agent/hectare

## C#CCON=C1CC2CCC1(C)C2(C)C (racemic) [new compound of the formula (I), 2-(proparglyoxyimino)-1,7,7-trimethyl-bicyclo[2,2,1]heptane]
White rats
  toxicity (in words): low toxicity; also recorded: superior to the known active agent with respect to its lower toxicity
cholinesterase
  cholinesterase blocking effect: absence of cholinesterase blocking effect
[1]
  speed of effect on more resistant test insects (in words): slower on more resistant test insects

## C#CCON=C1CC2CCC1(C)C2(C)C (racemic) [racemic active agent, (±)-2-(propargyloxyimino)-1,7,7-trimethyl-bicyclo[2,2,1]heptane]
[2]
  LD50: 1400 mg/kg
Corn [3]; [9]
  14th day Green weight: 152%
  14th day Height: 143%
Corn [3]; [10]
  28th day Green weight: 154%
  28th day Height: 148%
Corn [3]; dressed corn seeds, greenhouse, related to number of seeds sown
  Germination: 95%
Bean; 0.1 kg/ha
  Green weight in relation to the controls: 110%
Bean; 0.2 kg/ha
  Green weight in relation to the controls: 135%
Carrot; 0.1 kg/ha
  Green weight in relation to the controls: 105%
Carrot; 0.2 kg/ha
  Green weight in relation to the controls: 140%
Flax; 0.1 kg/ha
  Green weight in relation to the controls: 118%
Flax; 0.2 kg/ha
  Green weight in relation to the controls: 105%
Green pepper; 0.1 kg/ha
  Green weight in relation to the controls: 95%
Green pepper; 0.2 kg/ha
  Green weight in relation to the controls: 140%
Tomato; 0.1 kg/ha
  Green weight in relation to the controls: 120%
Tomato; 0.2 kg/ha
  Green weight in relation to the controls: 112%
Spinach
  Green weight in relation to the controls: 135%
Barley; 0.1 kg/ha
  Green weight in relation to the controls: 120%
Barley; 0.2 kg/ha
  Green weight in relation to the controls: 105%
Sorghum; 0.1 kg/ha
  Green weight in relation to the controls: 130%
Sorghum; 0.2 kg/ha
  Green weight in relation to the controls: 130%
Corn [4]; Table 3
  corn higher by (in comparison with the two controls): 27%
  ear yield greater by (in comparison with the two controls): 20%
  green weight higher by (in comparison with the two controls): 25%
Corn [4]; [11]
  Ear yield: 120%
  Green weight: 125%
  Height: 127%
Corn [5]; [12]
  Ear yield: 109%
  Green weight: 120%
  Height: 116%
Corn [5]; post-emergent, 1 kg/hectare
  post-emergent results compared with pre-emergent, same dosage (in words): slightly inferior to the former ones
Corn [5]; [13]
  Ear yield: 102%
  Green weight: 108%
  Height: 105%
Corn [5]; pre-emergent, 0.1 kg/hectare
  effectiveness in pre-emergent treatment (in words): effective even in a dosage of 0.1 kg/hectare
Corn [5]; [14]
  Ear yield: 118%
  Green weight: 127%
  Height: 121%
Corn [5]; [15]
  Ear yield: 116%
  Green weight: 135%
  Height: 127%
Corn [5]; [16]
  Ear yield: 107%
  Green weight: 115%
  Height: 115%
[6]
  effect on houseflies compared with dichlorphon (in words): approximately the same effect as dichlorphon
[7]; 250 ppm
  Activity: 70.4%
  Development: 29.6%
[7]; 500 ppm
  Activity: 100.0%
  Development: 0%
[7]; 1000 ppm
  Activity: 100.0%
  Development: 0%
[8]; Acanthoscelides obtectus, 336 h, 250 ppm, after 14 days, percentage of the control, read-out: Survivors
  survival at 250 ppm: 5%
[8]; Acanthoscelides obtectus, 336 h, 500 ppm, after 14 days, percentage of the control, read-out: Survivors
  survival at 500 ppm: 0%
[8]; Acanthoscelides obtectus, 336 h, 1000 ppm, after 14 days, percentage of the control, read-out: Survivors
  survival at 1000 ppm: 0%
[8]; even in a concentration of 250 ppm
  killing of granarial insect pests such as dried bean beetle (in words): can be applied successfully to kill granarial insect pests
